Results reported in patent US20060110790A1, “Expression system for large functional proteins” (priority 2002, published 2006).

Molecular target: T1, N-half co-expressed with the K1978M C-half mutant of ABCR (Homo sapiens, UniProt P78363, K1978M)
T1 construct: The cDNAs coding for the N-half (amino acids 1-1325) and C-half (amino acids 1326-2273) of ABCR; made in house
T1 sequence (P78363 1-1325): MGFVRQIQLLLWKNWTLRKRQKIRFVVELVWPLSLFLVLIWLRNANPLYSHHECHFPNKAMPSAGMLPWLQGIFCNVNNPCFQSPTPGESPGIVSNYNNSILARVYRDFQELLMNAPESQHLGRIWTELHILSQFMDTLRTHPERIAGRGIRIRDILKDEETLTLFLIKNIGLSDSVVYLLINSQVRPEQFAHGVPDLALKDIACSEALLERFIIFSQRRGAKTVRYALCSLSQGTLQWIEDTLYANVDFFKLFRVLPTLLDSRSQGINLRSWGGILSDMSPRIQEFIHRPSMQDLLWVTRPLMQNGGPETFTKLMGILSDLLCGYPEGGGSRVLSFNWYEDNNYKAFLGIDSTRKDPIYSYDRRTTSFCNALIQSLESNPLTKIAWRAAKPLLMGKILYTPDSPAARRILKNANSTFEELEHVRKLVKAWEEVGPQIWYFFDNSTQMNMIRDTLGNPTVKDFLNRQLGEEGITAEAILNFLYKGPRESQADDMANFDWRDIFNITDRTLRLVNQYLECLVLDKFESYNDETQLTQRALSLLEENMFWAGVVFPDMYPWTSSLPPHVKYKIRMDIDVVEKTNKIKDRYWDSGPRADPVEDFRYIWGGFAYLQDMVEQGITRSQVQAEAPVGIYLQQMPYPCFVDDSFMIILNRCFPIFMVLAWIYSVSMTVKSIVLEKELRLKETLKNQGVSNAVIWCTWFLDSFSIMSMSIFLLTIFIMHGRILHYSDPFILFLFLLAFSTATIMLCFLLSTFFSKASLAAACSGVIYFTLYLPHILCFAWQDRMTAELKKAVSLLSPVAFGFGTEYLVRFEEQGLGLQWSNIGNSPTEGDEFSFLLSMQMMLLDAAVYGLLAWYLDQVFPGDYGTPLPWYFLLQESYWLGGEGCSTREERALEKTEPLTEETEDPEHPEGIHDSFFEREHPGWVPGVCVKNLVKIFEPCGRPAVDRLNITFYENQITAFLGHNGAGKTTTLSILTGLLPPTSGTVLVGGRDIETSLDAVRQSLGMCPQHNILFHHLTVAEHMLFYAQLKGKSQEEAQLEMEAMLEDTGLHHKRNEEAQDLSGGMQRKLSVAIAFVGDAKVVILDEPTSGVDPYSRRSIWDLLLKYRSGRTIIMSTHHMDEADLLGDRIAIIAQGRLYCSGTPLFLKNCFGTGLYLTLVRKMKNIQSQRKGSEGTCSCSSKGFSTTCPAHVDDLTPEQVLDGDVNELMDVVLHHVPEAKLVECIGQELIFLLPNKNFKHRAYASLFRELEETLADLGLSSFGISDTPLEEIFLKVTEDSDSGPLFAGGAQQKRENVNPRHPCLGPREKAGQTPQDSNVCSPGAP
T1 sequence (P78363 1326-2273 K1978M): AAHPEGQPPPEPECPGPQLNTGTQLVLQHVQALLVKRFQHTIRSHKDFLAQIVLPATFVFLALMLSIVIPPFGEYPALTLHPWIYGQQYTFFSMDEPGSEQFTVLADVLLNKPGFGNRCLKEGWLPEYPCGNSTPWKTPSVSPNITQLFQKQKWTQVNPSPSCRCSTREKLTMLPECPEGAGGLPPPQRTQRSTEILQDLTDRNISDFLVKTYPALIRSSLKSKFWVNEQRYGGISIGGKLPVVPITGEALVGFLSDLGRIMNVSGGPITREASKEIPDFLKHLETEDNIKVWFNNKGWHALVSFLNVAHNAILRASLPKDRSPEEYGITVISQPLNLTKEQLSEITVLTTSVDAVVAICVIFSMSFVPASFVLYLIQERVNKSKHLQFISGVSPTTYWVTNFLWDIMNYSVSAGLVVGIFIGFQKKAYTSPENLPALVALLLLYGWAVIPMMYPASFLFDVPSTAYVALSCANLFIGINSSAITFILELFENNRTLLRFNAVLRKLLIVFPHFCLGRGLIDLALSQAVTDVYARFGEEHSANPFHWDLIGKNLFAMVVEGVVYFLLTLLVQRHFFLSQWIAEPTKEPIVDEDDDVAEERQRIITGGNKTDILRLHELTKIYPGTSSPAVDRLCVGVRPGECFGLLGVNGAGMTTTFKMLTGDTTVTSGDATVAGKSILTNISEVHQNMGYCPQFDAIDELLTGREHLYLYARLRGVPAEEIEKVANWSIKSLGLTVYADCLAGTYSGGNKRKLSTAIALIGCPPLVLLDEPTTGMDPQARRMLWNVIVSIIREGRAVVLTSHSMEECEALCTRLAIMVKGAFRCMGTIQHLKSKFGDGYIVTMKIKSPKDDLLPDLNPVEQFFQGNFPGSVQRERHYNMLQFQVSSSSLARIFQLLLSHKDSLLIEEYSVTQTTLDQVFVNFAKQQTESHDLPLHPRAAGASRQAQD
Assay: ATPase activity of Walker A lysine-to-methionine mutants
Type: biochemical
Conditions: 50 μM all-trans retinal
Description: FIG. 4. Lysine to methionine Walker A mutations in ABCR abolish ATP hydrolysis but not ATP binding. A. ATPase activity was measured in the absence (white bars) or presence of 50 μM all-trans retinal (grey bars). WT, wild-type; K969M in NBD1; K1978M in NBD2; MM, K969M/K1978M double mutant; NCM, N-half co-expressed with C-half containing a K1978M mutation. B. ATP photoaffinity labeling was carried out by irradiating membranes from COS-1 cells expressing wild-type (WT), K969M, K1978M, or K969M/K1978M double mutant (MM) with 3 μM 8-azido-[α-^32P]ATp. The labeled protein was isolated with Rim3F4-Sepharose and separated on SDS gels. Left panel: gel stained with Coomassie blue. Right panel: corresponding ^32P labeling obtained with a phosphorimager. All mutant proteins were labeled with 8-azido-[α-^32P]ATP, but the double mutant bound less nucleotide.
ATPase activity was measured as described previously (Ahn, J., Wong, J. T., and Molday, R. S. (2000) J Biol Chem 275(27), 20399-405) using 50 μM [α^32P]ATP and thin layer chromatography. The all-trans retinal concentration was determined spectrophotometrically (λ383 nm=42.88 mM^−1 cm^−1). Protein concentration was estimated from the eluate before reconstitution by laser densitometry of Coomassie blue stained gels using bovine serum albumin as a standard. […]

retinal-stimulated ATPase activity: abolished
Structure (SMILES): CC1=C(/C=C/C(C)=C/C=C/C(C)=C/C=O)C(C)(C)CCC1 [all-trans retinal]
